The target in one experiment is T1, Insulin Receptor Kinase (Homo sapiens, UniProt P06213).
T1 construct: consists of residues 941-1313 of the cytoplasmic domain of the beta-subunit of the human insulin receptor; purchased BIOMOL SE-195
T1 sequence (P06213 980-1352): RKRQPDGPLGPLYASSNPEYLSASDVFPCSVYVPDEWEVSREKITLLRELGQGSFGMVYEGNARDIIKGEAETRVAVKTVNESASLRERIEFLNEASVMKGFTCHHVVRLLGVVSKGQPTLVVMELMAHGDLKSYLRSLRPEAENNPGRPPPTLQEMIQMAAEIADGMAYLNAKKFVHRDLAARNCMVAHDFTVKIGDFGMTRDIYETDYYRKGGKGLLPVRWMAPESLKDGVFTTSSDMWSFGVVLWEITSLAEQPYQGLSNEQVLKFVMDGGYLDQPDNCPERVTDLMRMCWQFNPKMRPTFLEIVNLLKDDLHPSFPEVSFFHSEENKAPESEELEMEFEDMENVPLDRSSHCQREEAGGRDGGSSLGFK
Description: Insulin Kinase selectivity assay. The note with it: Table 4 kinase selectivity; read-out: IC50, Assay 13 Insulin Kinase. In kind it is biochemical. On the procedure: (§1) Assays to test compound inhibition of other kinases were preformed using methods that measure the amount of phosphorylation of a biotinylated peptide substrate. Biotinylated peptide substrates were selected from the literature as appropriate for the enzyme being evaluated. […] Assay conditions vary slightly for each protein kinase, for example, insulin receptor kinase requires 10 mM MnCl2 for activity and Calmodulin-dependent protein kinase requires calmodulin and 2 mM CaCl2. The reaction mixture was dispensed into the wells of a streptavidin coated Flashplate and 1 μl drug stock in 100% DMSO was added to a 100 μl reaction volume resulting in a final concentration of 1% DMSO in the reaction. Enzyme was diluted in 50 mM Tris-HCl pH=8.0, 0.1% BSA and added to each well. The reaction was incubated for one hour at 30° C. in the presence of compound. After one hour the reaction mix was aspirated from the plate and the plate was washed with PBS containing 100 mM EDTA. The plate was read on a scintillation counter to determine ^33P-γ-ATP incorporated into the immobilized peptide. Test compounds were assayed in duplicate at 8 concentrations [100 tM, 10 μM, 1 μM, 100 nM, 10 nM, 1 nM, 100 μM, 10 μM]. A maximum and minimum signal for the assay was determined on each plate. The IC50 was calculated from the dose response curve of the percent inhibition of the maximum signal in the assay according to the formula [max signal−background/test compound signal−background (100)=% inhibition] by graphing the percent inhibition against the log concentration of test compound. Known inhibitor compounds appropriate for the kinase being assayed were also included on each plate.
(§2) VEGF-R (vascular endothelial growth factor receptor-2) is a fusion protein containing a polyhistidine tag at the N-terminus followed by amino acids 786-1343 of the rat VEGF-R2 kinase domain (GenBank Accession #U93306). CDK1 (cyclin dependent kinase 1) is isolated from insect cells expressing both the human CDK1 catalytic subunit and its positive regulatory subunit cyclin B (New England Biolabs, Beverly, Mass., Cat. #6020). CDK4 (cyclin dependent kinase 4) contains amino acids 769 to 921 of the mouse […] protein found in the GST-retinoblastoma protein construct (Santa Cruz Biotechnology, Santa Cruz, Calif.; Cat. #SC-4112). Insulin Receptor Kinase consists of residues 941-1313 of the cytoplasmic domain of the beta-subunit of the human insulin receptor (BIOMOL, Plymouth Meeting, Pa., Cat. #SE-195). Protein Kinase A is the catalytic subunit of cAMP dependent protein kinase-A purified from bovine heart (Upstate Biotech, Lake Placid, N.Y., Cat#14-114). PKC (protein kinase-C) is the gamma or beta isoform of the human protein produced in insect cells (BIOMOL, Plymouth Meeting, Pa., Cat. #SE-143). Casein Kinase 1 is a truncation at amino acid 318 of the C-terminal portion of the rat CK1 delta isoform produced in E.coli (New England Biolabs, Beverly, Mass., Cat. #6030). Casein Kinase 2 includes the alpha and beta subunits of the human CK2 protein produced in E.coli (New England Biolabs, Beverly, Mass., Cat. #6010). Calmodulin Kinase (calmodulin-dependent protein kinase 2) is a truncated version of the alpha subunit of the rat protein produced in insect cells (New England Biolabs, Beverly, Mass., Cat. #6060). Glycogen Synthase Kinase-3 is the beta isoform of the rabbit enzyme produced in E. coli (New England Biolabs, Beverly, Mass., Cat. #6040). MAP Kinase is the rat ERK-2 isoform containing a polyhistidine tag at the N-terminus produced in E. coli. and activated by phosphorylation with MEK1 prior to purification (BIOMOL, Plymouth Meeting, Pa., Cat. #SE-137). EGFR (epidermal growth factor receptor) is purified from human A431 cell membranes (Sigma, St. Louis, Mo., Cat.# E3641). PDGF-R (platelet derived growth factor receptor) is a fusion protein containing a polyhistidine tag at the N-terminus followed by nucleotides 1874-3507 of the human PDGF-R beta subunit kinase domain (Accession #M21616). […]
T7 sequence (G1T8E2 1-432): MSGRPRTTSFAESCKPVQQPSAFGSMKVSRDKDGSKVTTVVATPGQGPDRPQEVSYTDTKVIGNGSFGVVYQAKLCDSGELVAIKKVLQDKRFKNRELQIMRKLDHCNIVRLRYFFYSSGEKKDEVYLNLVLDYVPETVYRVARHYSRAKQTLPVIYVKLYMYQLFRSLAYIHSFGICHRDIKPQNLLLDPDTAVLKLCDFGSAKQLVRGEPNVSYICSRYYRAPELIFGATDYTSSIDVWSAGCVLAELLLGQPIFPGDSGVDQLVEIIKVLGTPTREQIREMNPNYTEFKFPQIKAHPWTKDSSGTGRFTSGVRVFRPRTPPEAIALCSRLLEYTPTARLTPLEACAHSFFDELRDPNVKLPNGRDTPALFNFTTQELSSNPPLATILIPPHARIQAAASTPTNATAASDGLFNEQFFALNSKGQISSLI
Chain of CDK4 (cyclin dependent kinase 4) (P11802 whole entry, species assumed): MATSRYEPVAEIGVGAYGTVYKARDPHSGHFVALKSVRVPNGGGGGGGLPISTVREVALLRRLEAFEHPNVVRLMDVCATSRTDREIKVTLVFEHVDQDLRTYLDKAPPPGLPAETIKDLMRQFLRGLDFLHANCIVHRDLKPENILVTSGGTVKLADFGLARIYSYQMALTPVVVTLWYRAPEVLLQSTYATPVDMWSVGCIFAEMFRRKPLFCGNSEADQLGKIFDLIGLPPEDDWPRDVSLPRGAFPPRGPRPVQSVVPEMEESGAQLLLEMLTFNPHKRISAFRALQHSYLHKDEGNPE
Chain of CDK4 (cyclin dependent kinase 4) (P24385 whole entry partner, species assumed): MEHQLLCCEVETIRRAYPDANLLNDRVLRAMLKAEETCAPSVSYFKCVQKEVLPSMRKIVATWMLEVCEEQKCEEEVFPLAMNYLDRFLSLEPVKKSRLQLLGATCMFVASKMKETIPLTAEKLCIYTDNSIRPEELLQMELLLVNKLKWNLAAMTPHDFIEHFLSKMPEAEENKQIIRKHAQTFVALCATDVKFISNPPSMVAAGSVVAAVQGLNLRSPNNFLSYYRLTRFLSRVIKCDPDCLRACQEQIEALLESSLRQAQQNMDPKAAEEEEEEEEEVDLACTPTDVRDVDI
For the compound `Clc1cccc(Nc2cncc(-c3cncc(NCCCc4ccncc4)c3)n2)c1` [Cmd 71], the IC50 was above 100 µM.
`Clc1cccc(Nc2cncc(-c3cncc(NCCCn4cccn4)c3)n2)c1` [Cmd 75]: the IC50 was above 100 µM.
Still for that read-out and setting: the result for `Clc1cccc(Nc2cncc(-c3cncc(NCCCN4CCCCC4)c3)n2)c1` [Cmd 73] reads above 100 µM; that for `CN(C)CCCNc1cncc(-c2cncc(Nc3cccc(Cl)c3)n2)c1` [Cmd 35], above 100 µM; that for `CN(C)CCNc1cncc(-c2cncc(Nc3cccc(Cl)c3)n2)c1` [Cmd 33, N′-[5-[6-[(3-chlorophenyl)amino]pyrazinyl]-3-pyridinyl]-N^2,N^2-dimethyl-1,2-ethanediamine], above 100 µM.

The target of another experiment is T2, PKC-γ (Homo sapiens, UniProt P05129).
T2 construct: purchased BIOMOL SE-143; host or cells: insect cells
The experiment in a line: PKC-γ kinase selectivity assay. The class given is biochemical. Conditions: Table 4 kinase selectivity; read-out: IC50, Assay 6 PKC-γ. As for the experimental part: as §1, §2
For the compound `Clc1cccc(Nc2cncc(-c3cncc(NCCCN4CCCCC4)c3)n2)c1` [Cmd 73], the IC50 amounted to 1.36 µM.
As to `CN(C)CCCNc1cncc(-c2cncc(Nc3cccc(Cl)c3)n2)c1` [Cmd 35], the IC50 was 14.5 µM.
Same read-out and setting: for `CN(C)CCNc1cncc(-c2cncc(Nc3cccc(Cl)c3)n2)c1` [Cmd 33, N′-[5-[6-[(3-chlorophenyl)amino]pyrazinyl]-3-pyridinyl]-N^2,N^2-dimethyl-1,2-ethanediamine] the value was 3.96 µM.

For the next experiment, the target named is T3, Calmodulin Kinase (calmodulin-dependent protein kinase 2) (Rattus norvegicus, UniProt P11275).
T3 construct: a truncated version of the alpha subunit of the rat protein; purchased New England Biolabs 6060; host or cells: insect cells
T3 sequence (P11275 1-325): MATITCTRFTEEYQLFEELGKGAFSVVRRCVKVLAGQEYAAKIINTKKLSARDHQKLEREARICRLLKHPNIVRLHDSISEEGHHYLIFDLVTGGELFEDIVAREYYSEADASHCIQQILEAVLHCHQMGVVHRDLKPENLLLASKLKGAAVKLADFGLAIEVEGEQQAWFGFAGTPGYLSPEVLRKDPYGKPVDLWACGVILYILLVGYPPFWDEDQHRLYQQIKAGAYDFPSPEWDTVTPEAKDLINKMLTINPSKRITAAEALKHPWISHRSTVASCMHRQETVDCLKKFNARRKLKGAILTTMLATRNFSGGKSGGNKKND
The experiment in a line: Calmodulin Kinase selectivity assay. In kind it is biochemical. Conditions: Table 4 kinase selectivity; read-out: IC50, Assay 10 Calmodulin Kinase.
As for `Clc1cccc(Nc2cncc(-c3cncc(NCCCc4ccncc4)c3)n2)c1` [Cmd 71], the 50% inhibitory concentration (IC50) came to 4.89 µM.
On to `Clc1cccc(Nc2cncc(-c3cncc(NCCCn4cccn4)c3)n2)c1` [Cmd 75], for which the IC50 was found to be 27 µM.
The same measure, in the same setting: for `Clc1cccc(Nc2cncc(-c3cncc(NCCCN4CCCCC4)c3)n2)c1` [Cmd 73] the value was 7.55 µM; for `CN(C)CCCNc1cncc(-c2cncc(Nc3cccc(Cl)c3)n2)c1` [Cmd 35], above 100 µM.
Same read-out and setting: for `CN(C)CCNc1cncc(-c2cncc(Nc3cccc(Cl)c3)n2)c1` [Cmd 33, N′-[5-[6-[(3-chlorophenyl)amino]pyrazinyl]-3-pyridinyl]-N^2,N^2-dimethyl-1,2-ethanediamine] the value was above 100 µM.

The next experiment has as its target CDK4 (cyclin dependent kinase 4) (Homo sapiens, UniProt P11802). Description: CDK4 kinase selectivity assay. The class given is biochemical. Conditions: Table 4 kinase selectivity; 10 = approximate value; read-out: IC50, Assay 3 CDK4. On the procedure:
as §1
VEGF-R (vascular endothelial growth factor receptor-2) is a fusion protein containing a polyhistidine tag at the N-terminus followed by amino acids 786-1343 of the rat VEGF-R2 kinase domain (GenBank Accession #U93306). CDK1 (cyclin dependent kinase 1) is isolated from insect cells expressing both the human CDK1 catalytic subunit and its positive regulatory subunit cyclin B (New England Biolabs, Beverly, Mass., Cat. #6020). CDK4 (cyclin dependent kinase 4) contains amino acids 769 to 921 of the mouse […] protein found in the GST-retinoblastoma protein construct (Santa Cruz Biotechnology, Santa Cruz, Calif.; Cat. #SC-4112). Insulin Receptor Kinase consists of residues 941-1313 of the cytoplasmic domain of the beta-subunit of the human insulin receptor (BIOMOL, Plymouth Meeting, Pa., Cat. #SE-195). Protein Kinase A is the catalytic subunit of cAMP dependent protein kinase-A purified from bovine heart (Upstate Biotech, Lake Placid, N.Y., Cat#14-114). PKC (protein kinase-C) is the gamma or beta isoform of the human protein produced in insect cells (BIOMOL, Plymouth Meeting, Pa., Cat. #SE-143). […]
As for `CN(C)CCCNc1cncc(-c2cncc(Nc3cccc(Cl)c3)n2)c1` [Cmd 35], the IC50 is around 10 µM.
With `CN(C)CCNc1cncc(-c2cncc(Nc3cccc(Cl)c3)n2)c1` [Cmd 33, N′-[5-[6-[(3-chlorophenyl)amino]pyrazinyl]-3-pyridinyl]-N^2,N^2-dimethyl-1,2-ethanediamine], the IC50 is around 10 µM.

In another experiment the target is T4, Protein Kinase A (Bos taurus, UniProt P00517).
T4 construct: purified from bovine heart; purchased Upstate Biotech 14-114; host or cells: bovine heart
The experiment in a line: Protein Kinase A selectivity assay. In kind it is biochemical, bovine. Conditions: Table 4 kinase selectivity; read-out: IC50, Assay 5 Protein Kinase A. As for the experimental part:
as §1, §2
Consider `Clc1cccc(Nc2cncc(-c3cncc(NCCCc4ccncc4)c3)n2)c1` [Cmd 71], for which the IC50 is above 100 µM.
Same read-out and setting: the result for `Clc1cccc(Nc2cncc(-c3cncc(NCCCn4cccn4)c3)n2)c1` [Cmd 75] reads above 100 µM.
Still for that read-out and setting: the result for `Clc1cccc(Nc2cncc(-c3cncc(NCCCN4CCCCC4)c3)n2)c1` [Cmd 73] reads above 100 µM.
Still for that read-out and setting: for `CN(C)CCCNc1cncc(-c2cncc(Nc3cccc(Cl)c3)n2)c1` [Cmd 35] the value was above 100 µM.
Regarding `CN(C)CCNc1cncc(-c2cncc(Nc3cccc(Cl)c3)n2)c1` [Cmd 33, N′-[5-[6-[(3-chlorophenyl)amino]pyrazinyl]-3-pyridinyl]-N^2,N^2-dimethyl-1,2-ethanediamine], the IC50 is above 100 µM.

In the next experiment the target is T5, PKC-β2 (Homo sapiens, UniProt P05771).
T5 construct: purchased BIOMOL SE-143; host or cells: insect cells
T5 sequence (P05771 1-673 isoform P05771-2): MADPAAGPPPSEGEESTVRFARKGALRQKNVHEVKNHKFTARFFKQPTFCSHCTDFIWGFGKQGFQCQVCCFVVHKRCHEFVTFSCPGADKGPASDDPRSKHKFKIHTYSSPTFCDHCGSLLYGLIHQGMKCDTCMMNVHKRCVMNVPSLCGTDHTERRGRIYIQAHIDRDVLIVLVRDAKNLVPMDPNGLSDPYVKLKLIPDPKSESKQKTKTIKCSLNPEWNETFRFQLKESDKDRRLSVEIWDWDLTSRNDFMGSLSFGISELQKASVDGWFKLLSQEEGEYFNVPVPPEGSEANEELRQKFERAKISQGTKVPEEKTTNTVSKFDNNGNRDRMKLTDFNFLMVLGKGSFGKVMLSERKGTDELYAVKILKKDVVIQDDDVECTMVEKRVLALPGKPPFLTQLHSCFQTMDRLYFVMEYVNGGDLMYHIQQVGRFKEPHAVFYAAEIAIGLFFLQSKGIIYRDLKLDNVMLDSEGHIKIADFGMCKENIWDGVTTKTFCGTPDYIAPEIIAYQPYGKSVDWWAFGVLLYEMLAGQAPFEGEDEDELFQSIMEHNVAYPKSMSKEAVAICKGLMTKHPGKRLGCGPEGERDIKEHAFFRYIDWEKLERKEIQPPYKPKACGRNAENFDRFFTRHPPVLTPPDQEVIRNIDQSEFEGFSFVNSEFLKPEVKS
Description: PKC-β2 kinase selectivity assay. Conditions: Table 4 kinase selectivity; read-out: IC50, Assay 7 PKC-β2. The class given is biochemical. As for the experimental part:
as §1, §2
`Clc1cccc(Nc2cncc(-c3cncc(NCCCN4CCCCC4)c3)n2)c1` [Cmd 73]: the IC50 was determined as 1.75 µM.
The same measure, in the same setting: the result for `CN(C)CCCNc1cncc(-c2cncc(Nc3cccc(Cl)c3)n2)c1` [Cmd 35] reads above 100 µM.
Same read-out and setting: for `CN(C)CCNc1cncc(-c2cncc(Nc3cccc(Cl)c3)n2)c1` [Cmd 33, N′-[5-[6-[(3-chlorophenyl)amino]pyrazinyl]-3-pyridinyl]-N^2,N^2-dimethyl-1,2-ethanediamine] the value was above 100 µM.

The target of a further experiment is T6, PDGF-R (platelet derived growth factor receptor) (Homo sapiens, UniProt P09619).
T6 construct: polyhistidine (N)
T6 sequence (P09619 554-1106 limits assumed): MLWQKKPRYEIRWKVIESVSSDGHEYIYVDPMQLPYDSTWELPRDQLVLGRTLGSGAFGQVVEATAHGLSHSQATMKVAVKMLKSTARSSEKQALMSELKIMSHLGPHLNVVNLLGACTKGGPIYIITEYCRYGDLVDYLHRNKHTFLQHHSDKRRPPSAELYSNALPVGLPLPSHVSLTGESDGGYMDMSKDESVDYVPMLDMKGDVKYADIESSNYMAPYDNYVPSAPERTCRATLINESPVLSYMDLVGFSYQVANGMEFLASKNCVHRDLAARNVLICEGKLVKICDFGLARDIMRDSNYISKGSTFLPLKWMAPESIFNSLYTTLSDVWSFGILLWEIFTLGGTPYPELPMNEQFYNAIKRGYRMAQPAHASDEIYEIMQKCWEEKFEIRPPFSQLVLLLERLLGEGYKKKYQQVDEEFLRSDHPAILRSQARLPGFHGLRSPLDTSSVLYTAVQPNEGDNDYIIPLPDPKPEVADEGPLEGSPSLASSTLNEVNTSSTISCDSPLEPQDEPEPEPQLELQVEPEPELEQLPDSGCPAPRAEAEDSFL
Description: PDGF-R kinase selectivity assay. In kind it is biochemical. Conditions: Table 4 kinase selectivity; read-out: IC50, Assay 14 PDGF-R. As for the experimental part:
as §1, §2
With `Clc1cccc(Nc2cncc(-c3cncc(NCCCc4ccncc4)c3)n2)c1` [Cmd 71], the IC50 was determined as 1 µM.
The same measure, in the same setting: for `Clc1cccc(Nc2cncc(-c3cncc(NCCCN4CCCCC4)c3)n2)c1` [Cmd 73] the value was 0.175 µM; for `CN(C)CCCNc1cncc(-c2cncc(Nc3cccc(Cl)c3)n2)c1` [Cmd 35], 2.5 µM; for `CN(C)CCNc1cncc(-c2cncc(Nc3cccc(Cl)c3)n2)c1` [Cmd 33, N′-[5-[6-[(3-chlorophenyl)amino]pyrazinyl]-3-pyridinyl]-N^2,N^2-dimethyl-1,2-ethanediamine], 29.2 µM.

The next experiment has as its target T7, Glycogen Synthase Kinase-3 (beta isoform) (Oryctolagus cuniculus, UniProt G1T8E2).
T7 construct: purchased New England Biolabs 6040; host or cells: E. coli
The experiment in a line: GSK-3 kinase selectivity assay. The note with it: Table 4 kinase selectivity; read-out: IC50, Assay 11 GSK-3. The class given is biochemical, rabbit. As for the experimental part: as §1, §2
Consider `Clc1cccc(Nc2cncc(-c3cncc(NCCCc4ccncc4)c3)n2)c1` [Cmd 71], for which the IC50 was 0.159 µM.
Same read-out and setting: the result for `Clc1cccc(Nc2cncc(-c3cncc(NCCCn4cccn4)c3)n2)c1` [Cmd 75] reads 0.606 µM; that for `Clc1cccc(Nc2cncc(-c3cncc(NCCCN4CCCCC4)c3)n2)c1` [Cmd 73], 0.491 µM; that for `CN(C)CCCNc1cncc(-c2cncc(Nc3cccc(Cl)c3)n2)c1` [Cmd 35], 8.15 µM.
On the same count and under the same terms, the result for `CN(C)CCNc1cncc(-c2cncc(Nc3cccc(Cl)c3)n2)c1` [Cmd 33, N′-[5-[6-[(3-chlorophenyl)amino]pyrazinyl]-3-pyridinyl]-N^2,N^2-dimethyl-1,2-ethanediamine] reads 11.4 µM.
